Consider 18 molecules from US20140243286A1, “BROMODOMAIN LIGANDS CAPABLE OF DIMERIZING IN AN AQUEOUS SOLUTION, AND METHODS OF USING SAME” (Coferon, Inc., priority 2011, published 2014).

One data set deals with BRD2 (Homo sapiens, UniProt P25440). Put plainly: Fluorescence anisotropy (FA) binding assay, BRD2. The protocol: (§1) Fluorescence Anisotropy (FA) Binding Assays.
(§2) FA assays were performed as described in Chung et al., J. Med Chem., 2011 54(11): 3827-38 except that protein concentrations were 125 nM and plates were read on a Spectramax M5 plate reader.
For orientation: In fluorescence polarisation assays a small probe gives low polarisation when free and higher when bound to something large.

Another data set addresses BRD3 (Homo sapiens, UniProt Q15059). Put plainly: Fluorescence anisotropy (FA) binding assay, BRD3. The protocol:
as §1, §2

The target in another data set is BRD4 (Homo sapiens, UniProt O60885). Put plainly: Fluorescence anisotropy (FA) binding assay, BRD4. The method, then:
as §1, §2

Another data set deals with bromodomain. Put plainly: TR-FRET assay. It is filed as binding. As to conditions: BRD-S monomers; based on monomer concentration; read-out: IC50 range (based on monomer concentration), Group (FRET assay). The protocol:
TR-FRET assays were performed as described in Chung et al, J. Med Chem., 2011 54(11): 3827-38 except that FRET was measured on a Spectramax M5 plate reader.

Where [1] appears, read: BRD2, protein 125 nM, read-out: IC50 range (FA assay) BRD2, BRD-N monomers.
[2] abbreviates: BRD3, protein 125 nM, read-out: IC50 range (FA assay) BRD3, BRD-N monomers.
[3] abbreviates: BRD4, protein 125 nM, read-out: IC50 range (FA assay) BRD4, BRD-N monomers.

Molecules are shown by their SMILES. Like-named read-outs stand apart in the source and are kept apart here.

Chain of BRD3 (Q15059 whole entry): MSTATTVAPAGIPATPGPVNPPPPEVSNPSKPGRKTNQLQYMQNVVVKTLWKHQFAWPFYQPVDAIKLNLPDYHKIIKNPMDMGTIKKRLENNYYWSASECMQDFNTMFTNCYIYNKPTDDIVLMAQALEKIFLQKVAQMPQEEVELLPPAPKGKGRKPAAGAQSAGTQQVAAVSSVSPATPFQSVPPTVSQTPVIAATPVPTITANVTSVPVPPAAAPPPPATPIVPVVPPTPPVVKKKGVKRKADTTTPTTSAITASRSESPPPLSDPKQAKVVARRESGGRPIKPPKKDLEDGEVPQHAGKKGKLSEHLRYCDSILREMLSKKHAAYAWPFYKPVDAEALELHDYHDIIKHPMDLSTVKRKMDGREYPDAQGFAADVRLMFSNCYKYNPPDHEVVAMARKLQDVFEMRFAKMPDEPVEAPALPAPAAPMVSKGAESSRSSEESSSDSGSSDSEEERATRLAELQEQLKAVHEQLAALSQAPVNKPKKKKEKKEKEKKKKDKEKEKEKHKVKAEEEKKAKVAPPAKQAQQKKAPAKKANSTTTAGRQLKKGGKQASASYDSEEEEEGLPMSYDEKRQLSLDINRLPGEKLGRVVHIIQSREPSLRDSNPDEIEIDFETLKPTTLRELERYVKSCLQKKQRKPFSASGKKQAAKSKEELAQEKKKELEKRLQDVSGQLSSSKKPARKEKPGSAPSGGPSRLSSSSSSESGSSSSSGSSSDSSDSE
Chain of BRD2 (P25440 whole entry): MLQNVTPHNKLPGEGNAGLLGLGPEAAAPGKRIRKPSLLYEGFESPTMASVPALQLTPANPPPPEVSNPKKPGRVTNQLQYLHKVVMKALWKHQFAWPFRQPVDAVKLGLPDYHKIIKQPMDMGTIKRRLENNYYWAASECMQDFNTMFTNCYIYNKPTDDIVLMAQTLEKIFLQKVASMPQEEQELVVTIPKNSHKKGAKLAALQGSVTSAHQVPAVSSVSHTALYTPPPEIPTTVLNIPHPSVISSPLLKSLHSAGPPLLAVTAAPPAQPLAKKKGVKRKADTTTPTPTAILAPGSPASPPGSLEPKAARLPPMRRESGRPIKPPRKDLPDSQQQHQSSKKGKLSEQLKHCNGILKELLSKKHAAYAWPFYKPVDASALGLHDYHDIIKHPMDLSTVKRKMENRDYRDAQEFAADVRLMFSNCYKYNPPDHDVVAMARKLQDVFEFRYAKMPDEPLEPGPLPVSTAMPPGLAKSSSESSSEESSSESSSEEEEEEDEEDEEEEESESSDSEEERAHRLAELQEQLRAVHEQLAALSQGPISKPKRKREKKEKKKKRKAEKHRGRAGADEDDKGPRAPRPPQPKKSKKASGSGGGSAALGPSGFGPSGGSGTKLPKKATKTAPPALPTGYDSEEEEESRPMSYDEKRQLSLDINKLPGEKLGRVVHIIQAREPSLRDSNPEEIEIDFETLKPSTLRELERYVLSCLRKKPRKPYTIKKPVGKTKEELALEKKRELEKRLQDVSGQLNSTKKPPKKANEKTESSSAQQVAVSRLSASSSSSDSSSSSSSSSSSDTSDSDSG

The melting point is the temperature, or range, at which the solid turns liquid. On to `CCNC(=O)C[C@@H]1N=C(c2ccc(Cl)cc2)c2cc(O)ccc2-n2c(C)nnc21`, for which the melting point was 180 to 182 °C.

For the molecule `COc1ccc2c(c1)C(c1ccc(Cl)cc1)=N[C@@H](CC(=O)NCCc1ccc(O)c(O)c1)c1nnc(C)n1-2` [BRD-N-10, (S)-2-(6-(4-chlorophenyl)-8-methoxy-1-methyl-4H-benzo[f][1,2,4]triazolo[4,3-a][1,4]diazepin-4-yl)-N-(3,4-dihydroxyphenethyl)acetamide], the IC50 on BRD2 (setting [1]), at BRD3 (setting [2]) and on BRD4 (setting [3]) was 0.05 to 1 µM throughout.

Consider `COc1ccc2c(c1)C(c1ccc(Cl)cc1)=N[C@@H](CC(=O)NCc1cccc(O)c1O)c1nnc(C)n1-2` [BRD-N-11, (S)-2-(6-(4-chlorophenyl)-8-methoxy-1-methyl-4H-benzo[f][1,2,4]triazolo[4,3-a][1,4]diazepin-4-yl)-N-(2,3-dihydroxybenzyl)acetamide], for which the IC50 at BRD2 (setting [1]), on BRD3 (setting [2]) and on BRD4 (setting [3]) was 0.05 to 1 µM throughout.

Turning to `COc1ccc2c(c1)C(c1ccc(Cl)cc1)=N[C@@H](CC(=O)NCCc1cccc(O)c1O)c1nnc(C)n1-2` [BRD-N-12, (S)-2-(6-(4-chlorophenyl)-8-methoxy-1-methyl-4H-benzo[f][1,2,4]triazolo[4,3-a][1,4]diazepin-4-yl)-N-(2,3-dihydroxyphenethyl)acetamide], the IC50 at BRD2 (setting [1]), on BRD3 (setting [2]) and at BRD4 (setting [3]) was 0.05 to 1 µM throughout.

`CCNC(=O)C[C@@H]1N=C(c2ccc(Cl)cc2)c2cc(OCC(=O)Nc3ccc(O)c(O)c3)ccc2-n2c(C)nnc21` [BRD-N-16, (S)-2-((6-(4-chlorophenyl)-4-(2-(ethylamino)-2-oxoethyl)-1-methyl-4H-benzo[f][1,2,4]triazolo[4,3-a][1,4]diazepin-8-yl)oxy)-N-(3,4-dihydroxyphenyl)acetamide]: the IC50 on BRD2 (setting [1]), on BRD3 (setting [2]) and at BRD4 (setting [3]) was 0.05 to 1 µM in each case.

`CCNC(=O)C[C@@H]1N=C(c2ccc(Cl)cc2)c2cc(OCC(=O)Nc3cccc(O)c3O)ccc2-n2c(C)nnc21` [BRD-N-17, (S)-2-((6-(4-chlorophenyl)-4-(2-(ethylamino)-2-oxoethyl)-1-methyl-4H-benzo[f][1,2,4]triazolo[4,3-a][1,4]diazepin-8-yl)oxy)-N-(2,3-dihydroxyphenyl)acetamide]: the IC50 fell in the range of 0.05 to 1 µM at BRD2 (setting [1]), 1 to 30 µM on BRD3 (setting [2]) and 0.05 to 1 µM at BRD4 (setting [3]).

As for `CCNC(=O)C[C@@H]1N=C(c2ccc(Cl)cc2)c2cc(OCCCC(=O)Nc3ccc(O)c(O)c3)ccc2-n2c(C)nnc21` [BRD-N-20, (S)-4-((6-(4-chlorophenyl)-4-(2-(ethylamino)-2-oxoethyl)-1-methyl-4H-benzo[f][1,2,4]triazolo[4,3-a][1,4]diazepin-8-yl)oxy)-N-(3,4-dihydroxyphenyl)butanamide], the IC50 at BRD2 (setting [1]), on BRD3 (setting [2]) and on BRD4 (setting [3]) was 0.05 to 1 µM in each case.

On to `CCNC(=O)C[C@@H]1N=C(c2ccc(Cl)cc2)c2cc(OCCCC(=O)Nc3cccc(O)c3O)ccc2-n2c(C)nnc21` [BRD-N-21, (S)-4-((6-(4-chlorophenyl)-4-(2-(ethylamino)-2-oxoethyl)-1-methyl-4H-benzo[f][1,2,4]triazolo[4,3-a][1,4]diazepin-8-yl)oxy)-N-(2,3-dihydroxyphenyl)butanamide], for which the results for the IC50 on BRD2 (setting [1]), on BRD3 (setting [2]) and at BRD4 (setting [3]) were 1 to 30 µM, 0.05 to 1 µM and 0.05 to 1 µM, respectively.

On to `CCNC(=O)C[C@@H]1N=C(c2ccc(Cl)cc2)c2cc(OCCCCC(=O)Nc3ccc(O)c(O)c3)ccc2-n2c(C)nnc21` [BRD-N-22, (S)-5-((6-(4-chlorophenyl)-4-(2-(ethylamino)-2-oxoethyl)-1-methyl-4H-benzo[f][1,2,4]triazolo[4,3-a][1,4]diazepin-8-yl)oxy)-N-(3,4-dihydroxyphenyl)pentanamide], for which the IC50 on BRD2 (setting [1]), at BRD3 (setting [2]) and on BRD4 (setting [3]) was 0.05 to 1 µM each time.

For the molecule `CCNC(=O)C[C@@H]1N=C(c2ccc(Cl)cc2)c2cc(OCCCCC(=O)Nc3cccc(O)c3O)ccc2-n2c(C)nnc21` [BRD-N-23, (S)-5-((6-(4-chlorophenyl)-4-(2-(ethylamino)-2-oxoethyl)-1-methyl-4H-benzo[f][1,2,4]triazolo[4,3-a][1,4]diazepin-8-yl)oxy)-N-(2,3-dihydroxyphenyl)pentanamide], the IC50 at BRD2, on BRD3 and at BRD4 was 0.05 to 1 µM throughout.

In the case of `CCNC(=O)C[C@@H]1N=C(c2ccc(Cl)cc2)c2cc(OCCNC(=O)c3ccc(O)c(O)c3)ccc2-n2c(C)nnc21` [BRD-N-24], the IC50 fell in the range of 0.05 to 1 µM at BRD2 (setting [1]), 0.05 to 1 µM at BRD3 (setting [2]) and 1 to 30 µM at BRD4 (setting [3]).

`CCNC(=O)C[C@@H]1N=C(c2ccc(Cl)cc2)c2cc(OCCNC(=O)c3cccc(O)c3O)ccc2-n2c(C)nnc21` [BRD-N-25, (S)—N-(2-((6-(4-chlorophenyl)-4-(2-(ethylamino)-2-oxoethyl)-1-methyl-4H-benzo[f][1,2,4]triazolo[4,3-a][1,4]diazepin-8-yl)oxy)ethyl)-2,3-dihydroxybenzamide]: the IC50 at BRD2 (setting [1]) lay in the range of 1 to 30 µM; at BRD3 (setting [2]), 0.05 to 1 µM; on BRD4 (setting [3]), 0.05 to 1 µM.

With `CCNC(=O)C[C@@H]1N=C(c2ccc(Cl)cc2)c2cc(OCCCNC(=O)c3ccc(O)c(O)c3)ccc2-n2c(C)nnc21` [BRD-N-26, (S)—N-(3-((6-(4-chlorophenyl)-4-(2-(ethylamino)-2-oxoethyl)-1-methyl-4H-benzo[f][1,2,4]triazolo[4,3-a][1,4]diazepin-8-yl)oxy)propyl)-3,4-dihydroxybenzaamide], the IC50 on BRD2 (setting [1]), at BRD3 (setting [2]) and on BRD4 (setting [3]) was 1 to 30 µM each time.

In the case of `CCNC(=O)C[C@@H]1N=C(c2ccc(Cl)cc2)c2cc(OCCCNC(=O)c3cccc(O)c3O)ccc2-n2c(C)nnc21` [BRD-N-27, (S)—N-(3-((6-(4-chlorophenyl)-4-(2-(ethylamino)-2-oxoethyl)-1-methyl-4H-benzo[f][1,2,4]triazolo[4,3-a][1,4]diazepin-8-yl)oxy)propyl)-2,3-dihydroxybenzamide], the IC50 lay within 1 to 30 µM at BRD2 (setting [1]), 0.05 to 1 µM at BRD3 (setting [2]) and 0.05 to 1 µM on BRD4 (setting [3]).

In the case of `CCNC(=O)C[C@@H]1N=C(c2ccc(Cl)cc2)c2cc(OCCCCNC(=O)c3ccc(O)c(O)c3)ccc2-n2c(C)nnc21` [BRD-N-28, (S)—N-(4-((6-(4-chlorophenyl)-4-(2-(ethylamino)-2-oxoethyl)-1-methyl-4H-benzo[f][1,2,4]triazolo[4,3-a][1,4]diazepin-8-yl)oxy)butyl)-3,4-dihydroxybenzamide], the results for the IC50 on BRD2 (setting [1]), at BRD3 (setting [2]) and at BRD4 (setting [3]) were 1 to 30 µM, 0.05 to 1 µM and 1 to 30 µM, respectively.

On to `CCNC(=O)C[C@@H]1N=C(c2ccc(Cl)cc2)c2cc(OCCCCNC(=O)c3cccc(O)c3O)ccc2-n2c(C)nnc21` [BRD-N-29, (S)—N-(4-((6-(4-chlorophenyl)-4-(2-(ethylamino)-2-oxoethyl)-1-methyl-4H-benzo[f][1,2,4]triazolo[4,3-a][1,4]diazepin-8-yl)oxy)butyl)-2,3-dihydroxybenzamide], for which the IC50 was in the range of 0.05 to 1 µM on BRD2 (setting [1]), 1 to 30 µM at BRD3 (setting [2]) and 1 to 30 µM at BRD4 (setting [3]).

For the molecule `COc1ccc2c(c1)C(c1ccc(Cl)cc1)=N[C@@H](CC(=O)NCCNC(=O)Cc1ccc(O)c(O)c1)c1nnc(C)n1-2` [BRD-N-30, 2-((4S)-6-(4-chlorophenyl)-8-methoxy-1-methyl-4H-benzo[f][1,2,4]triazolo[4,3-a][1,4]diazepin-4-yl)-N-(2-(2-(3,4-dihydroxyphenyl)acetamido)ethyl)acetamide], the IC50 on BRD2 (setting [1]), on BRD3 (setting [2]) and at BRD4 (setting [3]) was 0.05 to 1 µM throughout.

Turning to `COc1ccc2c(c1)C(c1ccc(Cl)cc1)=N[C@@H](CC(=O)NCCOc1cccc([Si](C)(C)O)c1)c1nnc(C)n1-2` [BRD-S-10, (S)-2-(6-(4-chlorophenyl)-8-methoxy-1-methyl-4H-benzo[f][1,2,4]triazolo[4,3-a][1,4]diazepin-4-yl)-N-(2-(3-(hydroxydimethylsilyl)phenoxy)ethyl)acetamide], the IC50 with bromodomain is 0.1 to 0.3 µM.
